The source of these data is ChEMBL document CHEMBL1144613, “Substituted acyclic sulfonamides as human cannabinoid-1 receptor inverse agonists” (Bioorg Med Chem Lett, 2007).

The target of data set [1] is Cannabinoid receptor 1 (Homo sapiens, UniProt P21554). Nature of the data set: biochemical. The class given is cell-based, CHO.
Another data set has as its target Cannabinoid receptor 2 (Homo sapiens, UniProt P34972). Put plainly: Displacement of [3H]CP-55940 from human recombinant CB2 receptor expressed in CHO cells. The class given is cell-based. Background: Displacement assays read how much labelled ligand stays bound in the presence of the test substance.
The nature of data set [2]: Half life in rat at 1 mg/kg, iv or 2 mg/kg, po. In kind it is ADME, organism-based. Conditions: in vivo.
The nature of data set [3]: Ratio of drug level in brain to plasma in rat at 1 mg/kg, iv at 0.25 h. The class given is ADME, organism-based. Also noted: dose 1 mg/kg, route intravenous.
Data set [4] in a line: Plasma concentration in rat at 1 mg/kg, iv at 0.25 h. The class given is ADME, organism-based. Also noted: dose 1 mg/kg, route intravenous.
Data set [5] can be described thus: Ratio of drug level in brain to plasma in rat at 1 mg/kg, iv at 1 h. Also noted: dose 1 mg/kg, route intravenous. In kind it is ADME, organism-based.
Data set [6] is described as follows: Plasma concentration in rat at 1 mg/kg, iv at 1 h. Also noted: dose 1 mg/kg, route intravenous. In kind it is ADME, organism-based.
Data set [7] in a line: Brain concentration in rat at 1 mg/kg, iv at 1 h. The class given is ADME, organism-based. Also noted: dose 1 mg/kg, route intravenous. Conditions: read-out: Activity.
The next data set relates to Rattus norvegicus. Put plainly: Inhibition of CP-55940-induced hypothermia in rat at 3 mg/kg, iv after 30 mins. Conditions: 0.5 h. In kind it is functional.
Data set [8] can be described thus: Plasma clearance in rat at 1 mg/kg, iv or 2 mg/kg, po. The class given is ADME, organism-based.
Data set [9] is described as follows: Oral bioavailability in rat at 1 mg/kg, iv or 2 mg/kg, po. In kind it is ADME, organism-based. Particulars: in vivo.
Data set [10] is described as follows: Brain concentration in rat at 1 mg/kg, iv at 0.25 h. The class given is ADME, organism-based. Also noted: dose 1 mg/kg, route intravenous. Conditions: read-out: Activity.
The nature of data set [11]: Ratio of drug level in brain to plasma in rat at 1 mg/kg, iv at 2 hrs. In kind it is ADME, organism-based. Also noted: dose 1 mg/kg, route intravenous.
Data set [12] is described as follows: Cmax in rat at 1 mg/kg, iv or 2 mg/kg, po. Particulars: in vivo. The class given is ADME, organism-based.
Data set [13] is described as follows: Volume of distribution at steady state in rat at 1 mg/kg, iv or 2 mg/kg, po. In kind it is ADME, organism-based. Conditions: in vivo, read-out: Vdss.
Data set [14] addresses Cannabinoid receptor 1 (Rattus norvegicus, UniProt P20272). Nature of the data set: Binding affinity at rat CB1 receptor.
Data set [15] is described as follows: Brain concentration in rat at 1 mg/kg, iv at 2 hrs. In kind it is ADME, organism-based. Conditions: read-out: Activity. More on the design: dose 1 mg/kg, route intravenous.
The nature of data set [16]: Plasma concentration in rat at 1 mg/kg, iv at 2 hrs. In kind it is ADME, organism-based. More on the design: dose 1 mg/kg, route intravenous.

pIC50: −log10 of the molar value. A value given as a limit tells only on which side of the number the result lay.

Chain of Cannabinoid receptor 2 (P34972 whole entry): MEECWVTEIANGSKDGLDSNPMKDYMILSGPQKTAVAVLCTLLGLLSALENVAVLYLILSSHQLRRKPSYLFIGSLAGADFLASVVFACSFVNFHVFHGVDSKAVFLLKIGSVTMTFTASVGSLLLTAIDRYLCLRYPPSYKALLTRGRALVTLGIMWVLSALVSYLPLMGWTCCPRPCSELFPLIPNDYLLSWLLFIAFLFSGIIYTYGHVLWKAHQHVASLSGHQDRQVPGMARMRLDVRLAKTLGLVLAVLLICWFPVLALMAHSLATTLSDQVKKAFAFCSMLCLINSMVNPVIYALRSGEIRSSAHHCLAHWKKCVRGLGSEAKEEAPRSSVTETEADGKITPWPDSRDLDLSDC
Chain of Cannabinoid receptor 1 (Homo sapiens, UniProt P21554) (P21554 whole entry): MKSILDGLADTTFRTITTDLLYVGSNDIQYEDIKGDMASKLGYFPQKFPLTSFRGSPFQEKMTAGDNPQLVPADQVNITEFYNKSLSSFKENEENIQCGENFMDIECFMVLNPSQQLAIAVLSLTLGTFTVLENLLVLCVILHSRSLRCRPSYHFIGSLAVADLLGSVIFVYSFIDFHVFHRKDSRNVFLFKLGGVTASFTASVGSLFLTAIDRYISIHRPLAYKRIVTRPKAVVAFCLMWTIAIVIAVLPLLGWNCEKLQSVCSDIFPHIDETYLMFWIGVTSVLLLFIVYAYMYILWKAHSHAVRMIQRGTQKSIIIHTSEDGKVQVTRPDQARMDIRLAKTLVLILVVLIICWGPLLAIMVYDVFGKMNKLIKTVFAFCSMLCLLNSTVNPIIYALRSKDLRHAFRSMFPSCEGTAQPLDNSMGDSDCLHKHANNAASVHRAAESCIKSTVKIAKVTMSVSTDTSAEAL
Chain of Cannabinoid receptor 1 (Rattus norvegicus, UniProt P20272) (P20272 whole entry): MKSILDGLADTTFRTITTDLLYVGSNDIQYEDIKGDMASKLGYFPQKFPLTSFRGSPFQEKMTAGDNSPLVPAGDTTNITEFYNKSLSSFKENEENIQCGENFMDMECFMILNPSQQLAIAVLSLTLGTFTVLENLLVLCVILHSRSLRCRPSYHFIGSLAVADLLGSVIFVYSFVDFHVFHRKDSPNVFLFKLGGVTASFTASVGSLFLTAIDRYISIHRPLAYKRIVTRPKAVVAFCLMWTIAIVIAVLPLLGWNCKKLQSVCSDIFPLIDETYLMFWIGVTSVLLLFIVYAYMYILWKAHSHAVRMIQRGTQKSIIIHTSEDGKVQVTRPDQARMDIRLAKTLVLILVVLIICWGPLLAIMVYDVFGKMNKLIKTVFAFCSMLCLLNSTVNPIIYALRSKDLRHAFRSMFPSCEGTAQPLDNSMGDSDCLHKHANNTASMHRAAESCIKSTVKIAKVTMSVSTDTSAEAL

For `C[C@H](NS(=O)(=O)c1cccc(Cl)c1Cl)[C@@H](Cc1ccc(Cl)cc1)c1cccc(C#N)c1`, the negative logarithm of the IC50 (pIC50) (in general, −log10 of the IC50, conventionally taken in molar units) was 7.97 against Cannabinoid receptor 1 [1] and 6.70 at Cannabinoid receptor 2.

`C[C@@H]([C@@H](Cc1ccc(Cl)cc1)c1cccc(C#N)c1)N(C)S(C)(=O)=O`: the pIC50 at Cannabinoid receptor 1 [1] and at Cannabinoid receptor 2 was less than 5.70 each time.

Regarding `C[C@H](NC(=O)c1cc(Cl)cc(Cl)c1)[C@@H](Cc1ccc(Cl)cc1)c1cccc(C#N)c1`, the pIC50 on Cannabinoid receptor 1 [1] was 6.55; on Cannabinoid receptor 2, 6.74.

In the case of `CCCCS(=O)(=O)N[C@@H](C)[C@@H](Cc1ccc(Cl)cc1)c1cccc(C#N)c1`, the negative logarithm of the IC50 (pIC50) is 7.12 on Cannabinoid receptor 1 [1] and 5.84 on Cannabinoid receptor 2.

With `C[C@H](NS(=O)(=O)C(C)(C)C)[C@@H](Cc1ccc(Cl)cc1)c1cccc(C#N)c1`, the negative logarithm of the IC50 (pIC50) against Cannabinoid receptor 1 [1] was 5.78; at Cannabinoid receptor 2, less than 5.70.

On to `C[C@H](NC(=O)c1c(Cl)cccc1Cl)[C@@H](Cc1ccc(Cl)cc1)c1cccc(C#N)c1`, for which the values for the pIC50 against Cannabinoid receptor 1 [1] and on Cannabinoid receptor 2 were 7.43 and 6.02, respectively.

Regarding `C[C@H](NC(=O)Cc1ccccc1)[C@@H](Cc1ccc(Cl)cc1)c1cccc(C#N)c1`, the negative-log IC50 (pIC50) is 7.36 against Cannabinoid receptor 1 [1] and less than 5.70 on Cannabinoid receptor 2.

Regarding `C[C@H](NS(=O)(=O)c1c(Cl)cccc1Cl)[C@@H](Cc1ccc(Cl)cc1)c1cccc(C#N)c1`, the pIC50 at Cannabinoid receptor 1 [1] is 7.53; on Cannabinoid receptor 2 it was 6.55.

As for `C[C@H](NS(=O)(=O)c1cc(Cl)cc(Cl)c1)[C@@H](Cc1ccc(Cl)cc1)c1cccc(C#N)c1`, the pIC50 is 7.94 against Cannabinoid receptor 1 [1] and 6.00 at Cannabinoid receptor 2.

As for `C[C@@H]([C@@H](Cc1ccc(Cl)cc1)c1cccc(C#N)c1)N(C)S(=O)(=O)c1cc(Cl)cc(Cl)c1`, the negative-log IC50 (pIC50) on Cannabinoid receptor 1 [1] and on Cannabinoid receptor 2 was less than 5.70 each time.

As to `C[C@H](NS(=O)(=O)c1ccccc1Cl)[C@@H](Cc1ccc(Cl)cc1)c1cccc(C#N)c1`, the negative-log IC50 (pIC50) against Cannabinoid receptor 1 [1] is 7.91; at Cannabinoid receptor 2, 6.18.

Take `C[C@H](NS(=O)(=O)c1cc(C(F)(F)F)cc(C(F)(F)F)c1)[C@@H](Cc1ccc(Cl)cc1)c1cccc(C#N)c1`: the results for the pIC50 against Cannabinoid receptor 1 [1] and at Cannabinoid receptor 2 were 8.49 and 5.76, respectively.

On to `C[C@H](NS(=O)(=O)c1cc(F)cc(F)c1)[C@@H](Cc1ccc(Cl)cc1)c1cccc(C#N)c1`, for which the pIC50 at Cannabinoid receptor 1 [1] was 8.29; on Cannabinoid receptor 2 it was 5.97.

In the case of `C[C@H](NS(=O)(=O)c1cccc(-c2ccccc2)c1)[C@@H](Cc1ccc(Cl)cc1)c1cccc(C#N)c1`, the half-life – broadly, the time needed for the level to fall by half in the phase considered – in [2] is 8.4 h. Besides, the Kp (usually tissue or fluid exposure divided by exposure in the circulation) at 0.25 h in [3] is 0.66. Also, the concentration at 0.25 h in [4] was determined as 220 nM; in data set [10], 146 nM. The Kp at 1 h in data set [5] was found to be 0.82. Moreover, the concentration at 1 h in [6] stood at 113 nM; in data set [7] it was 92 nM. In addition, testing at 3 mg/kg in the data set with Rattus norvegicus gave an inhibition in vivo of 48.9%. In [8], this molecule showed a clearance of 10.6 mL/min/kg. In addition, in data set [9], the bioavailability (in general, dose-corrected exposure relative to a reference, in per cent) is 48%. For the same molecule, the Kp at 2 h in data set [11] was found to be 1. Besides, in data set [12], the peak level (Cmax) was 343 nM. The Vd in data set [13] was 6.9 L/kg. For the same molecule, the results for the pIC50 against Cannabinoid receptor 1 [1], on Cannabinoid receptor 2 and on Cannabinoid receptor 1 [14] were 8.55, 6.40 and 8.64, respectively. For the same molecule, the concentration at 2 h in data set [15] and in data set [16] was 54 nM in each case.

For `C[C@H](NS(=O)(=O)c1cccc(Cl)c1)[C@@H](Cc1ccc(Cl)cc1)c1cccc(C#N)c1`, the pIC50 on Cannabinoid receptor 1 [1] is 7.86; at Cannabinoid receptor 2 it was 6.09.

As to `C[C@H](NS(=O)(=O)c1ccc(-c2ccccc2)cc1)[C@@H](Cc1ccc(Cl)cc1)c1cccc(C#N)c1`, the negative-log IC50 (pIC50) is 7.64 against Cannabinoid receptor 1 [1] and 6.39 at Cannabinoid receptor 2.

Consider `C[C@H](NS(=O)(=O)c1cccc2ccccc12)[C@@H](Cc1ccc(Cl)cc1)c1cccc(C#N)c1`, for which the negative logarithm of the IC50 (pIC50) is 7.68 against Cannabinoid receptor 1 [1] and 5.95 at Cannabinoid receptor 2.

As for `C[C@H](NS(=O)(=O)c1ccc(Cl)cc1Cl)[C@@H](Cc1ccc(Cl)cc1)c1cccc(C#N)c1`, the negative logarithm of the IC50 (pIC50) against Cannabinoid receptor 1 [1] is 8.15; on Cannabinoid receptor 2 it was 6.52.

Consider `C[C@H](NS(=O)(=O)Cc1ccccc1)[C@@H](Cc1ccc(Cl)cc1)c1cccc(C#N)c1`, for which the pIC50 on Cannabinoid receptor 1 [1] is 7.68; at Cannabinoid receptor 2, less than 5.70.

With `C[C@H](NS(=O)(=O)Cc1ccccc1Cl)[C@@H](Cc1ccc(Cl)cc1)c1cccc(C#N)c1`, the negative logarithm of the IC50 (pIC50) is 7.80 at Cannabinoid receptor 1 [1] and 5.72 on Cannabinoid receptor 2.

On to `C[C@H](NS(=O)(=O)Cc1ccc(Cl)cc1)[C@@H](Cc1ccc(Cl)cc1)c1cccc(C#N)c1`, for which the negative logarithm of the IC50 (pIC50) was 7.81 against Cannabinoid receptor 1 [1] and 5.76 on Cannabinoid receptor 2.

Take `C[C@H](NS(=O)(=O)CCc1ccccc1)[C@@H](Cc1ccc(Cl)cc1)c1cccc(C#N)c1`: the pIC50 was 7.71 against Cannabinoid receptor 1 [1] and 6.04 at Cannabinoid receptor 2.

Take `C[C@H](NC(=O)CCc1ccccc1)[C@@H](Cc1ccc(Cl)cc1)c1cccc(C#N)c1`: the results for the pIC50 against Cannabinoid receptor 1 [1] and on Cannabinoid receptor 2 were 7.42 and 5.86, respectively.

Consider `C[C@H](NS(=O)(=O)/C=C/c1ccccc1)[C@@H](Cc1ccc(Cl)cc1)c1cccc(C#N)c1`, for which the pIC50 is 7.38 on Cannabinoid receptor 1 [1] and 5.97 on Cannabinoid receptor 2.

Consider `C[C@H](NC(=O)c1ccccc1)[C@@H](Cc1ccc(Cl)cc1)c1cccc(C#N)c1`, for which the pIC50 on Cannabinoid receptor 1 [1] is 6.07; on Cannabinoid receptor 2, 5.72.

Turning to `C[C@H](NS(=O)(=O)c1cc(Cl)ccc1Cl)[C@@H](Cc1ccc(Cl)cc1)c1cccc(C#N)c1`, the pIC50 is 8.13 against Cannabinoid receptor 1 [1] and 6.30 on Cannabinoid receptor 2.

On to `C[C@H](NS(=O)(=O)c1ccc2ccccc2c1)[C@@H](Cc1ccc(Cl)cc1)c1cccc(C#N)c1`, for which the values for the pIC50 at Cannabinoid receptor 1 [1] and on Cannabinoid receptor 2 were 7.82 and 5.96, respectively.

As for `C[C@H](NS(=O)(=O)Cc1cccc(Cl)c1)[C@@H](Cc1ccc(Cl)cc1)c1cccc(C#N)c1`, the pIC50 at Cannabinoid receptor 1 [1] is 7.27; at Cannabinoid receptor 2 it was 5.70.

In the case of `C[C@H](NS(=O)(=O)c1cc(Cl)c(Cl)cc1Cl)[C@@H](Cc1ccc(Cl)cc1)c1cccc(C#N)c1`, the pIC50 on Cannabinoid receptor 1 [1] is 7.80; at Cannabinoid receptor 2 it was 6.21.

`C[C@H](NS(=O)(=O)c1ccccc1)[C@@H](Cc1ccc(Cl)cc1)c1cccc(C#N)c1`: the pIC50 on Cannabinoid receptor 1 [1] was 8.01; on Cannabinoid receptor 2, 5.83.

As for `C[C@H](NS(=O)(=O)c1ccc(Cl)cc1)[C@@H](Cc1ccc(Cl)cc1)c1cccc(C#N)c1`, the pIC50 was 7.66 on Cannabinoid receptor 1 [1] and 6.34 on Cannabinoid receptor 2.

With `C[C@H](NS(C)(=O)=O)[C@@H](Cc1ccc(Cl)cc1)c1cccc(C#N)c1`, the pIC50 at Cannabinoid receptor 1 [1] and on Cannabinoid receptor 2 was less than 5.70 each time.

For `Cc1c(C(=O)NN2CCCCC2)nn(-c2ccc(Cl)cc2Cl)c1-c1ccc(Cl)cc1` [RIMONABANT], in the data set with Rattus norvegicus, 3 mg/kg produced 97.9% inhibition in vivo.
